Data as given in patent publication US20230414560A1, “COMPOSITIONS AND METHODS FOR TREATING ECZEMA” (General Nutraceutical Technology LLC, priority 2022, published 2023).
In brackets after ≈: the same amount, converted by molar mass. Where two headings read alike, the source gives them in different places.

Key:
[1] = cited from earlier work
TNF-α [2] = assay: TNF-α production by LPS-stimulated RAW 264.7 cells (ELISA); assay type: cell-based, murine
Description: (§1) Human U266 myeloma cells were cultured in complete media containing RPMI-1640 medium with 10% fetal bovine serum (FBS), 0.5% penicillin-streptomycin, 1×10^−5 mol/L of 0-mercaptoethanol, and 1 mmol/L of sodium pyruvate at 37° C. in an incubator with 5% CO2. U266 cells were cultured at initial 2×10^5 cell/mL with SZT-I or active compounds at different concentration. Then the supernatants were collected after 6 days. The level of IgE was. measured by an enzyme-linked immunosorbent assay (ELISA) kit according to the manufacturer's instructions. RAW 264.7 murine macrophages (5×10^5 cell/mL) were cultured in DMEM medium supplemented with 10% FBS, and 0.5% penicillin-streptomycin at 37° C. under 5% CO2. SZT-I or active compounds at different concentrations and LPS (0.5 μg/mL) added to cells. Supernatants were harvested after 24 h and analyzed by ELISA for TNF-α (Mabtech, In vitro studies-Cell viability Inc, Cincinnati, Ohio). Eotaxin inhibitory assays were conducted by using human fetal lung fibroblast (HFL-1) cells. HFL-1 (CCL-153) cells were grown in F-12K medium (ATCC, Rockville, MD) containing 10% fetal bovine serum (Gibco BRL, Grand Island, NY) and 1% penicillin-streptomycin (BD Bio, San Jose, CA). […] Eotaxin levels were determined by using ELISA (R&D Systems) according to the directions of the manufacturer.

Raw 264.7 cells = assay: Raw 264.7 cytotoxicity (MTT assay); assay type: cell-based, murine; details: luteolin concentrations tested
Description: (§2) Cell viability of U266 was measured by trypan blue exclusion (Yang, Patil, et al., 2013). Cell suspension (10 uL) was mixed with trypan blue dye (10 uL), and viable cells and total cells counted with a hemocytometer. The cell viability was calculated using the equation: cell viability=(total number of viable cells)/(total number of cells). The viability of Raw 264.7 was evaluated using the MTT assay carried out as previously described (Liu, C. et al., 2015, Phytother Res, 29(6), 925-932). Cells were seeded into a 96-well plate at 2×10^4 cells/well, then different concentrations of SZT-I or active compounds were added to the plate. After 24 h, 50 μL MTT (2.0 mg/mL) was added to wells and the plate was incubated for a further 3 h. The supernatant was discarded, and the generated formazan was dissolved in dimethyl sulfoxide (DMSO) (200 μL). The absorbance of wells was detected at 590 nm.

IgE = IgE production by U266 myeloma cells (ELISA); assay type: cell-based, Human
Description: as §1

U266 cells = assay: U266 cell viability (trypan blue exclusion); assay type: cell-based, Human; details: at the concentrations reducing IgE
Description: as §2

TNF-α [3] = assay: RT-PCR mRNA expression of hub target TNF-α after LPS; assay type: cell-based, murine; details: after LPS stimulation
Description: (§3) Expressions of targets were measured by RT-PCR. After treatment, total RNA was collected from the esophagus. Reverse transcription was conducted to obtain the cDNA. The RT-PCR amplification was performed using SYBRTM Green Master Mix with primers. The primer sequences were listed as follows: m-TNF-α: F-[…] (SEQ ID NO: 3); R-[…] (SEQ ID NO: 4). m-Bcl2: F-[…] (SEQ ID NO: 5); R-[…] (SEQ ID NO: 6). m-IL1B: F-[…] (SEQ ID NO: 7); R-[…] TGTGTG (SEQ ID NO: 8). m-PPARG: F-[…] (SEQ ID NO: 9); R-[…] (SEQ ID NO: 10).

IL1B = assay: RT-PCR mRNA expression of hub target IL1B after LPS; assay type: cell-based, murine; details: after LPS stimulation
Description: as §3

Bcl2 = assay: RT-PCR mRNA expression of hub target Bcl2 after LPS; assay type: cell-based, murine; details: Raw cells
Description: as §3

PPARG = assay: RT-PCR mRNA expression of hub target PPARG after LPS; assay type: cell-based, murine; details: inhibited by LPS
Description: as §3

| Compound | O.B. (oral bioavailability) ([1]; TCMSP database, Table 1) | also measured |
| --- | --- | --- |
| CN1CCc2cc3c(cc2[C@H]1[C@H]1OC(=O)c2c1ccc1c2OCO1)OCO3 [bicuculline] | 69.67 |  |
| CC1=C(/C=C/C(C)=C/C=C/C(C)=C/C=C/C=C(C)/C=C/C=C(C)/C=C/C2=C(C)CCCC2(C)C)C(C)(C)CCC1 [β-carotene] | 37.18 |  |
| β-sitosterol | 36.91 | OB (oral bioavailability) ([1]; TCMSP database): 36.91% |
| CC1(C)C=Cc2c(ccc3c2OC[C@@H](c2ccc(O)cc2O)C3)O1 [Glabridin] | 53.25 |  |
| O=c1cc(-c2ccc(O)c(O)c2)oc2cc(O)cc(O)c12 [Luteolin] |  | IC50 (TNF-α [2]; Mus musculus, RAW264.7, Raw 264.7 cells, LPS 0.5 μg/mL, 24 h): 5.61 µg/mL (≈ 19.6 µM); production of TNF-α compared with quercetin and kaempferol (TNF-α [2]; Raw 264.7 cells stimulated by LPS, 20 μg/mL): significantly inhibited; cell toxicity on Raw 264.7 (Raw 264.7 cells): no significant cell toxicity; production of IgE (IgE; 10 μg/mL): strongly diminished; IC50 (IgE; Homo sapiens, U-266, 144 h, 6 days): ~4.81 µg/mL (≈ 16.8 µM); cytotoxicity on U266 (U266 cells): without cytotoxicity; mRNA expression of TNF-α (TNF-α [3]): reversed; mRNA expression of IL1B (IL1B): reversed; mRNA expression of Bcl2 (Bcl2): increased the expression of Bcl2 significantly; mRNA expression of PPARG (PPARG): upregulated; OB (oral bioavailability) ([1]; TCMSP database): 36.16% |
| CC1(C)C=Cc2c(ccc3cc(-c4ccc(O)cc4O)c(=O)oc23)O1 [Kanzonols W] | 50.48 |  |
| COc1cc2oc3c4c(O)cc(O)cc4oc(=O)c3c2cc1OC [1,3-dihydroxy-8,9-dimethoxy-6-benzofurano[3,2-c]chromenone] | 62.9 |  |
| C=C(CC[C@@H](C(=O)O)[C@H]1[C@H](O)C[C@@]2(C)C3=C(CC[C@]12C)[C@@]1(C)CC[C@H](OC(C)=O)C(C)(C)[C@@H]1CC3)C(C)C [Pachymic acid] | 33.63 |  |
| CC1(C)C=Cc2c(ccc(-c3coc4cc(O)ccc4c3=O)c2O)O1 [Glabrone] | 52.51 |  |
| O=C1/C(=C2\Nc3ccccc3C2=O)Nc2ccccc21 [Indigo] | 38.2 |  |
| COc1ccc(C(=O)/C=C/c2ccc(O)cc2OC)cc1 [Glypallichalcone] | 61.6 |  |
| C[C@@]12C[C@@]3(O)O[C@H](O1)[C@@]1(COC(=O)c4ccccc4)[C@@H]3C[C@]12O[C@@H]1O[C@H](CO)[C@H](O)[C@H](O)[C@@H]1O [paeoniflorin_qt] | 68.18 |  |
| CCCCC/C=C\C/C=C\CCCCCCCC(=O)OCC [Mandenol] | 42 |  |
| O=c1c(O)c(-c2ccc(O)c(O)c2)oc2cc(O)cc(O)c12 [Quercetin] | 46.43 |  |
| CC/C=C/C/C=C/C/C=C/CCCCCCCC(=O)OCC [Ethyl linolenate] | 46.1 |  |
| COc1ccc(-c2coc3cc(O)ccc3c2=O)cc1 [Formononetin] | 69.67 |  |
| C=C(C)[C@@H]1CC[C@]2(C(=O)O)CC[C@]3(C)[C@H](CC[C@@H]4[C@@]5(C)CC[C@H](O)C(C)(C)[C@@H]5CC[C@]43C)[C@@H]12 [Betulinic acid] | 55.38 |  |
| O=C1C[C@H](c2ccc(O)cc2)Oc2cc(O)ccc21 [(2R)-7-hydroxy-2-(4-hydroxyphenyl) chroman-4-one] | 71.12 |  |

| Compound | O.B. (oral bioavailability) ([1]; TCMSP database, Table 1) | also measured |
| --- | --- | --- |
| CC(C)=CC[C@H](O)C1=CC(=O)c2c(O)ccc(O)c2C1=O [Shikonin] | 64.79 |  |
| O=C1C[C@@H](c2ccc(O[C@@H]3O[C@H](CO)[C@@H](O)[C@H](O)[C@H]3O)cc2)Oc2cc(O)ccc21 [liquiritin] | 65.69 |  |
| β-amyrin acetate |  | O.B. (oral bioavailability) ([1]; po): 42.06 |
| COc1cc(-c2cc(=O)c3c(O)cc(O)cc3o2)ccc1O [Chryseriol] | 35.85 |  |
| CCC(/C=C/[C@H](C)[C@@H]1CC[C@@H]2[C@@H]3CC=C4C[C@@H](O)CC[C@]4(C)[C@@H]3CC[C@@]21C)C(C)C (stereo partly shown) [ZINC03978781] | 43.83 |  |
| CCCCC/C=C/C/C=C/CCCCCCCCCC(=O)O [11,14-eicosadienoic acid] | 39.99 |  |
| O=c1c(O)c(-c2ccc(O)cc2)oc2cc(O)cc(O)c12 [Kaempferol] | 41.88 |  |
| CC(C)=CCc1c(O)cc(O)c2c(=O)c(-c3ccc(O)cc3)coc12 [Lupiwighteone] | 51.64 |  |
| CC(C)=CCc1c(O)cc(O)c2c(=O)c(-c3ccc(O)c(O)c3)coc12 [3-(3,4-dihydroxyphenyl)-5,7-dihydroxy-8-(3-methylbut-2-enyl)chromone] | 66.37 |  |
| Oc1cc(O)c2c(c1)O[C@H](c1ccc(O)c(O)c1)[C@@H](O)C2 [Cianidanol] | 36.91 |  |
| COc1c(CC=C(C)C)c(O)cc2oc(=O)c3c4ccc(O)cc4oc3c12 [Glycyrol] | 90.78 |  |
| Stigmasterol | 43.83 | OB (oral bioavailability) ([1]; TCMSP database): 43.83% |
| COc1c(/C=C/C(=O)c2ccc(O)cc2)ccc(O)c1O [Licochalcone B] | 76.76 |  |
| CCCCCCCC/C=C\CCCCCCCC(=O)OCC [Ethyl oleate] | 32.4 |  |
| COc1cc(O)cc2c1[C@@H]1Oc3c(ccc(O)c3CC=C(C)C)[C@@H]1CO2 [1-Methoxyphaseol-lidin] | 69.98 |  |
| Sitosterol | 36.91 | OB (oral bioavailability) ([1]; TCMSP database): 36.91% |
| CC(C)=CCc1c(O)cc2c(c1O)C=C(c1ccc(O)cc1O)CO2 [dehydroglyasperins C] | 53.82 |  |
| COc1c(O)cc(O)c2c(=O)cc(-c3ccccc3)oc12 [wogonin] | 30.68 |  |
